From ChEMBL document CHEMBL5728228, “Inhibitors of cyclin-dependent kinases” (2021)

Assay: Protein kinase assay (Condition B: Thiol-free Conditions): The IC50 profile of compounds was determined using one protein kinase in a customized, thiol free assay. […] Prior to testing, the 1×10−03 M stock solutions in column 2 of the master plates were subjected to a serial, semi-logarithmic dilution using 100% DMSO as a solvent. […] Column 1 and 7 were filled with 100% DMSO as controls. Subsequently, 2×10 microliter from each well of the serial diluted copy plates were aliquoted with a 96 channel pipettor into two identical sets of “compound dilution plates”. All plates were barcoded for automated identification and tracking purposes. […] All compounds were stored as powder until being solubilized in DMSO. Solubilized compounds were stored as 1×10−02 M/100% DMSO stock solutions. Prior to the assay process, 90 microliters of H2O were added to each well of a set of compound dilution plates. To minimize potential precipitation, the H2O was added to each plate only a few minutes before the transfer of the compound solutions into the assay plates. Each plate was shaken thoroughly, resulting in compound dilution plates with a final of 10% DMSO. For each assay, 5 microliters of solution from each well of the compound dilution plates/10% DMSO were transferred into the assay plate. The final volume of the assay was 50 μl. All compounds were tested at 10 final assay concentrations in the range from 1×10−05 M to 3×10−10 M, in singlicate. The final DMSO concentration in the reaction cocktails was 1% in all cases. A radiometric protein kinase assay (33PanQinase® Activity Assay) was used for measuring the kinase activity of the protein kinase. All kinase assays were performed in 96-well FlashPlates™ from PerkinElmer (Boston, Mass., USA) in a 50 microliter reaction volume. The reaction cocktail was pipetted in four steps in the following order: 20 microliter of assay buffer (standard buffer)·5 microliter of ATP solution (in H2O)·5 microliter of test compound (in 10% DMSO)·20 microliter enzyme/substrate mix. […] For all experiments labeled as “Thiol-free”, all glutathione was exchanged from protein preparations so as to be removed from the assay and final buffer conditions contained no thiol-containing reagents. This was done so there would be no interference with the key cysteines in the proteins of interest.

SMILES | IC50 [nM]
C=CC(=O)Nc1ccc(C(=O)N2CC[C@@H](Nc3ncc(Cl)c(OC)n3)C2)cc1C | < 100
C=CC(=O)N(C)c1ccc(C(=O)N2CC[C@@H](Nc3ncc(Cl)c(OC)n3)C2)cc1 | < 100
C=CC(=O)Nc1ccc(C(=O)N2CC[C@@H](Nc3cc(OC)c(Cl)cn3)C2)cc1 | < 100
C=CC(=O)Nc1ccc(C(=O)N2CC[C@@H](Nc3ncc(Br)c(OC)n3)C2)cc1 | < 100
C=CC(=O)Nc1ccc(C(=O)N2CC[C@@H](Nc3ncc(Cl)c(OC)n3)C2)cc1 | < 100
CCC(=O)Nc1ccc(C(=O)N2CC[C@@H](Nc3ncc(Br)c(OC)n3)C2)cc1 | < 100
C=CC(=O)Nc1ccc(C(=O)N2CC[C@@H](Nc3ncc(Br)cn3)C2)cc1 | < 100
